Laboratory results reported in patent publication US20230270748A1, “COMBINATION OF A BCL-2 INHIBITOR AND A HYPOMETHYLATING AGENT FOR TREATING CANCERS, USES AND PHARMACEUTICAL COMPOSITIONS THEREOF” (LES LABORATOIRES SERVIER, priority 2020, published 2023).

What was measured:
Assay type in all cases: cell-based
AML cell line OCI-AML3 = assay: Cell viability (CellTiterGlo, 3 days), single agents and combination, in OCI-AML3; settings: Homo sapiens, OCI-AML-3, 72 h; OCI-AML3, single agent, 3 days incubation, CTG signal
AML cell line HL-60 = assay: Cell viability (CellTiterGlo, 3 days), single agents and combination, in HL-60; settings: Homo sapiens, 72 h; HL-60, single agent, 3 days incubation, CTG signal
AML cell line MV4;11 = assay: Cell viability (CellTiterGlo, 3 days), single agents and combination, in MV4;11; settings: Homo sapiens, 72 h; MV4;11, single agent, 3 days incubation, CTG signal
AML cell line EOL-1 = assay: Cell viability (CellTiterGlo, 3 days), single agents and combination, in EOL-1; settings: Homo sapiens, EOL1, 72 h; EOL-1, single agent, 3 days incubation, CTG signal

IC50 (AML cell line OCI-AML3) [nM] | IC50 (AML cell line HL-60) [nM] | IC50 (AML cell line MV4;11) [nM] | Compound | IC50 (AML cell line EOL-1) [nM]
7100 | > 10000 | 689 | Nc1ncn([C@@H]2O[C@H](CO)[C@@H](O)[C@H]2O)c(=O)n1 [5-azacitidine, azacitidine] | 187
5690 | 3100 | 3 | Cc1c(N(C(=O)c2cc(-c3cc(Cl)ccc3C(=O)N3Cc4ccccc4C[C@H]3CN3CCOCC3)n(C)c2C)c2ccc(O)cc2)cc(C#N)n1C [Compound A, 5-(5-chloro-2-{[(3S)-3-(morpholin-4-ylmethyl)-3,4-dihydroisoquinolin-2(1H)-yl]carbonyl}phenyl)-N-(5-cyano-1,2-dimethyl-1H-pyrrol-3-yl)-N-(4-hydroxyphenyl)-1,2-dimethyl-1H-pyrrole-3-carboxamide] | 18
